Where a name gives a salt, the structure may show the parent alone. Read-outs that look alike come from different tables or passages of the source. Where no end group is shown, it is not given here.
Experiments:
C. albicans (CBS 5982) = experiment: microbe, parasite or virus in culture; type: cell-based, Candida albicans; settings: for IC90: Candida albicans, CBS5982, 24 h, 0.05× PDB, 30°C, 24 h, OD620, read-out: IC90 (inhibitory concentration that reduced growth by ≥90%)
[1] = cited from earlier work
C. albicans cells = experiment: Uptake mechanism (fluorescence microscopy, 4°C or CCCP); type: cell-based, Candida albicans; settings: 2 μM
[2] = Vesicle leakage assay, PC-PE-ergosterol; type: biochemical; settings: PC-PE-ergosterol-LUVs; 32 μM peptide (1.5:1), negative control; 50 μM lipid, 30 min, 37°C; mean ± SD
[3] = Vesicle leakage assay, PC-CL; type: biochemical; settings: PC-CL-LUVs; 32 μM peptide (1.5:1), negative control; 50 μM lipid, 30 min, 37°C; mean ± SD
[4] = Vesicle leakage assay (ANTS-DPX), all LUVs; type: biochemical; settings: 32 μM peptide, negative control, 1% Triton X-100 = 100%
[5] = Vesicle leakage assay, PC-PE; type: biochemical; settings: PC-PE-LUVs; 32 μM peptide (1.5:1), negative control; 50 μM lipid, 30 min, 37°C; mean ± SD
[6] = Vesicle leakage assay, PC-PS-ergosterol; type: biochemical; settings: PC-PS-ergosterol-LUVs; 32 μM peptide (1.5:1), negative control; 50 μM lipid, 30 min, 37°C; mean ± SD
[7] = Vesicle leakage assay, PC-PS; type: biochemical; settings: PC-PS-LUVs; 32 μM peptide (1.5:1), negative control; 50 μM lipid, 30 min, 37°C; mean ± SD
[8] = Vesicle leakage assay, PC-ergosterol; type: biochemical; settings: PC-ergosterol-LUVs; 32 μM peptide (1.5:1), negative control; 50 μM lipid, 30 min, 37°C; mean ± SD
[9] = Vesicle leakage assay, PG-PE-CL; type: biochemical; settings: PG-PE-CL-LUVs; 32 μM peptide (1.5:1), negative control; 50 μM lipid, 30 min, 37°C; mean ± SD
[10] = tested on: C. albicans cell membrane; experiment: Membrane depolarization assay with DiSC3(5) dye; type: cell-based, Candida albicans; settings: 1 × 10^6 cells/mL, 30°C, 60 min, PCγ^C-terminal 32 μM
[11] = Vesicle leakage assay, PC-sphingomyelin; type: biochemical; settings: PC-sphingomyelin-LUVs; 32 μM peptide (1.5:1), negative control; 50 μM lipid, 30 min, 37°C; mean ± SD
[12] = Vesicle leakage assay, PG; type: biochemical; settings: PG-LUVs; 32 μM peptide (1.5:1), negative control; 50 μM lipid, 30 min, 37°C; mean ± SD
[13] = Vesicle leakage assay, PC; type: biochemical; settings: PC-LUVs; 32 μM peptide (1.5:1), negative control; 50 μM lipid, 30 min, 37°C; mean ± SD
[14] = Vesicle leakage assay, PC-ceramide; type: biochemical; settings: PC-ceramide-LUVs; 32 μM peptide (1.5:1), negative control; 50 μM lipid, 30 min, 37°C; mean ± SD
[15] = Vesicle leakage assay, PC-PI; type: biochemical; settings: PC-PI-LUVs; 32 μM peptide (1.5:1), negative control; 50 μM lipid, 30 min, 37°C; mean ± SD

CCCCCCCCN=c1ccn(CCCCCCCCCCn2ccc(=NCCCCCCCC)cc2)cc1 [Octenidine, N,N′-(1,10 decanediyldi-1[4H]-pyridinyl-4-ylidene)-bis-(1-octanamine) dihydrochloride]
IC90 (C. albicans (CBS 5982); 1 × 10^4 cells/mL): 1000 nM
IC90 (C. albicans (CBS 5982); 1 × 10^6 cells/mL): 2000 nM

Temporin B [reference compound]
hydrophobicity (hydrophobic amino acids) [1]: 61%
positive net charge ([1]; pH 7): +0.9

BODIPY-PAFB: P. chrysogenum antifungal protein B (PAFB) conjugated with the green fluorophore BODIPY; control for energy-dependent uptake (LSKFGGECSLKHNTCTYLKGGKNHVVNCGSAANKKCKSDRHHCEYDEHHKRVDCQTPV; cysteine pairing not given here; also: BODIPY label, position not given here; UniProt D0EXD3 35-92, looked up)
uptake into C. albicans cells (C. albicans cells; 30°C, standard condition, 45 min for BODIPY-PAFB): taken up by C. albicans
uptake into C. albicans cells with reduced respiration and metabolism (C. albicans cells; 4°C, or 30°C with 100 μM CCCP, 15 min (FITC-TB_KKG6K), 45 min (BODIPY-PAFB)): no internalization

CGGASCRG [PCγ^C-terminal, negative control peptide CGGASCRG derived from the C-terminal part of Penicillium chrysogenum antifungal protein C (PAFC), reference compound]
% Leakage [2]: 1.7 ± 2.0%
% Leakage [3]: 0.7 ± 0.4%
% Leakage [4]: ≤ 2%
% Leakage [5]: 1.4 ± 0.6%
% Leakage [6]: 2.0 ± 1.4%
% Leakage [7]: 0.9 ± 2.7%
% Leakage [8]: 1.1 ± 0.9%
% Leakage [9]: −1.2 ± 1.6%
membrane depolarization, DiSC3(5) fluorescence intensity ([10]; TB analog 0.5, 1, 2 μM, Triton X-100 1% (wt/vol)): No membrane depolarization
% Leakage [11]: 0.6 ± 0.8%
% Leakage [12]: 1.9 ± 1%
% Leakage [13]: 1.4 ± 1.4%
% Leakage [14]: 1.3 ± 0.2%
fungal growth inhibition (C. albicans (CBS 5982); peptide concentration 0 to 32 μM): No fungal growth inhibition
% Leakage [15]: 0.4 ± 0.5%

Triton X-100 [reference compound]
membrane depolarization, DiSC3(5) fluorescence intensity ([10]; […]): fast and sustained increase in fluorescence intensity

From paper PMC9599520, “The Membrane Activity of the Amphibian Temporin B Peptide Analog TB_KKG6K Sheds Light on the Mechanism That Kills Candida albicans” (mSphere, 2022)
